“Also recorded” adds a separate entry of the source. Where two headings read alike, the source gives them in different places.
What was measured:
[1] = Plasma pharmacokinetics of AVR-48 after iv dosing in preterm lambs; format: in vivo, lamb
Method: Formulation and dosing of AVR-48. AVR-48 (3 mg/mL) was formulated in 0.9% sterile saline and filtered through a 0.2-micron syringe filter into 10 mL serum vials ready for dosing. The efficacy dose was determined in a pilot study by stepwise escalating the AVR-48 dose concentrations. […] The vehicle control groups received 0.9% sterile saline every 12 hours (h).
Pharmacokinetic study. The pharmacokinetics (PK) of AVR-48 were determined using plasma from the PT lambs following twice daily IV infusion (10 min) of AVR-48 every 12 h for 7 days. Tested doses were 0 (n=2), 0.1 (n=1), 0.3 (n=1), 1.0 (n=2), 3.0 (n=3), and 9 (n=1) mg/kg. PK evaluation for AVR-48 was only performed for DOL1 (12 time points between 0 and 12 h after the initial dose; volume of plasma samples through DOL2-7 was inadequate for PK evaluation). Quality-controlled plasma bioanalytical data were transferred from the Bioanalytical group to the PK Scientist of the Biopharmaceutics Department of Pharmascience Inc. Samples were analyzed, using Phoenix WinNonlin software, version 8.1 (Certara, USA), using a previously standardized HPLC/LC/MS method.

[2] = tested on: preterm lamb model of BPD; test: Survival and growth in mechanically ventilated preterm lamb BPD model; format: in vivo
Method: For dose-optimization, preterm (PT) lambs were delivered at ˜128d (d; saccular stage of lung development; ˜85% gestation) after maternal antenatal steroids exposure. […] After delivery and surfactant administration, PT lambs were maintained on invasive mechanical ventilation (IMV) for 7d followed by 3d noninvasive respiratory support. For the early-stage study, outcomes were determined for PT lambs over DOL1-10. For the late-stage study, outcomes were determined for former preterm (FPT) lambs (vehicle, AVR-48 treated) that were weaned from respiratory support after 10d and were maintained in the lamb intensive care unit for a further 80d. Outcomes included functional, structural, molecular, and neurobehavioral assessments. Term reference lambs that were never ventilated were used as developmental references for the FPT lambs.
Study timeline. FIGS. 1A and 1B show the timeline for the two-endpoint study using two groups of PT lambs. The first endpoint used PT lambs managed by IMV for 7d, followed by extubation to noninvasive respiratory support (NRS) for up to 3d of life (DOL7-10). At that time, terminal tissues were collected. The second endpoint used the same management protocol, followed by weaning the lambs from respiratory support and having them live in the lamb intensive care unit as former PT (FPT) lambs for 2 months corrected postnatal age (3 months chronological age, DOL 90). The rationale for the 2-month corrected postnatal age for FPT lambs is when sheep are weaned from milk, equivalent to about 12-18 months for humans. Methods for the FPT lamb model have been reported.^14,17
PT lamb model and methods for all outcome measures. Surgical preparation and management of lamb groups. Delivery and clinical management methods for PT lambs (6-8) and FPT lambs (3, 4). Briefly, time-pregnant ewes that had single or twin fetuses at ˜128d (˜85%) gestation (term ˜150d gestation) were used (main FIGS. 1A and 1B). The fetuses were exposed to antenatal steroids (dexamethasone) at ˜48 h and ˜24 h before Cesarean-section (exit-procedure) delivery. […]

[3] = tested on: preterm lamb model of BPD; test: Neurobehavioral assessments (curiosity, socialization, learning and memory); format: in vivo
Text: Neurobehavioral assessments. The inventors adapted tests for curiosity, using novel objects of different colors and shapes; socialization, using a nonreflective (dull) surface versus a reflective surface (mirror); and learning and memory, using a maze with a reward.^20 These tests were adapted from other studies that assessed the neurobehavior of sheep.^20-25 Assessments were made over 2 weeks.
Habituation (open-field for exploration; days 1 and 2) was used to familiarize the lambs with the test, rest rooms, and tender. Habituation was accomplished on days 1 and 2 by a 10-minute stay in the test room, a 30-minute rest period in the rest room, and another 10-minute stay in the test room. Habituation was repeated the next day.
Tests were (1) curiosity, using novel objects; (2) socialization, using a non-reflective surface and a reflective surface; and (3) learning and memory (using a maze with a milk bottle reward). The tests were done on sequential days over two weeks. Tests were trials of 10-min each, with a 30-min rest period between trials. Each 10-min trial was video recorded, using the Noldus System (model EthoVision XT 17 with the Physiology Integration Module; Noldus Information Technology Inc., Leesburg, VA). The test room had tape on the floor that divided the floor into 9 zones for identification of movement direction and speed, inactivity, etc., in video playback. A ceiling camera recorded each test session. The camera was connected to a dedicated computer with the Noldus software to document lamb activity and time. The novel objects test required four trials on day 3. Trials 1 and 2 used two objects (brown and blue bowls) affixed to the floor. For trial 3, before the lamb was returned to the test room, the brown bowl was replaced with a novelx object (pink pitcher). For trial 4, before the lamb was returned to the test room, a new object (yellow ball) was added with the blue bowl and pink pitcher (3 objects). Analysis was the number of times and the time spent investigating each object.
The socialization test required two trials each on days 4 and 5. Two metallic surfaces were attached to a wall, one with a non-reflective and the other with a reflective surface. Analysis was the number of times and the time spent investigating each surface.
The following week, the learning and memory test required two trials on day 6. A maze made of solid metal panels was set up in the test room. A tender was in one corner of the maze, holding a bottle of milk, the reward for completing the maze. Once the tender was in place, the lamb entered the test room. Analysis was the time to reach the milk bottle reward.

[4] = Clinical biochemistry and physiological parameters of treated lambs; format: in vivo, lamb
Method: Arterial blood and free-fall urine samples were collected every 24 h and analyzed for indicators of liver and kidney function (Associated Regional and University Pathologists (ARUP) Laboratories, Salt Lake City).
Clinical biochemistry. Plasma and urine samples were analyzed by Associated Regional and University Pathologists (ARUP) at the University of Utah. Plasma renal function parameters are urea nitrogen and creatinine. Plasma hepatic function parameters are alkaline phosphatase, aspartate aminotransferase, alanine aminotransferase, total protein, albumin, bilirubin total, and direct bilirubin.
Physiological parameters for lambs in the early and late-stage studies. Physiology results were obtained including cardiovascular physiology, temperature, respiratory rates, indices for oxygenation, ventilation indices, plasma pH, bicarbonate, base excess, plasma electrolytes, plasma glucose, hematocrit (Hct), total serum protein (Tsp), lactate, enteral feeding, milk residual, and hematology for early and late-stage studies.

[5] = efficacy dose 10 mg/kg intraperitoneal injection; read-out: Cmax in mouse pups' plasma; cited from earlier work
[6] = 3.00 mg/kg bid iv, Day 1, 0 to 12 hr post dose, lamb plasma
[7] = 3.00 mg/kg bid iv, Day 1, lamb plasma
[8] = 2 moC PNA (d90), FPT lambs vs FPT vehicle
[9] = early-stage study DOL 1-7, vs vehicle

## CC(=O)NC1C(Oc2ccc([N+](=O)[O-])cc2)OC(CO)C(O)C1O (centres unmarked) [AVR-48]
[1]; [6]
  AUC(0-t): 4222.9 ± 1835.9 ng·h/mL
  Cmax: 3885.7 ± 1458.7 ng/mL
[1]; 3.00 mg/kg bid iv, Day 1, 0 to 12 hr post dose, male and female lamb plasma
  Tmax: 15 min
[1]; [7]
  C0 (theoretical Cmax, concentration extrapolated to 0 hr): 5138.8 ng/mL
  CL: 13.19 mL/min/kg
  T1/2: 38.4 ± 14.4 min
  Tlast: 4.75 h
  Vd: 0.6684 ± 0.129 L/kg
[1]; 3.0 mg/kg iv every 12 h for 7 d, lamb plasma
  plasma concentration 15 minutes after each repeat dosing: 3886.6 ± 619.7 ng/mL
[1]; 3.0 mg/kg/dose iv, lamb plasma, read-out: Cmax
  Cmax: 10.7 µM
[1]; 0.1-9 mg/kg/dose iv
  Exposure (AUC(0-t)) over the dose range tested: increased dose-relatedly; also recorded: increased in a dose-related manner
[1]; iv every 12 h for 7 d, 0.1-9 mg/kg/dose
  repeat dose Cmax: consistent and dose-dependent
[2]; early-stage study, PT lambs
  survival: ~100%
[2]; late-stage study d10-d90, FPT lambs, 3.0 mg/kg iv every 12 h DOL1-7
  survival: 80%
[2]; late-stage study, FPT AVR-48 lambs vs FPT vehicle lambs
  body weight: significantly increased
[3]; 1 moC PNA (day of life 60), among groups
  curiosity and socialization outcomes (time at novel object, dull surface, mirror): No differences were detected
[3]; 2 moC PNA (d90), FPT lambs 3.0 mg/kg/dose vs FPT vehicle
  time at novel object (curiosity test): significantly less time; also recorded: significantly shorter
[3]; [8]
  time at the dull surface (socialization test): less time (not significant); also recorded: significantly shorter
  time at the mirror (reflective surface, socialization test): more time (not significant); also recorded: significantly longer
  time to navigate the maze to reach the milk bottle reward (learning and memory test): significantly faster; also recorded: less (not significant)
[4]; AVR-48 treated lambs
  clinical parameters (plasma renal and hepatic function): within the normal range
[4]; early and late-stage studies
  physiological outcomes (cardiovascular, temperature, respiratory rates, plasma chemistry, feeding, hematology): no adverse effect
[4]; [9]
  Hematology: No statistical difference
  plasma glucose, Hct, Tsp, and lactate: No statistical difference
  plasma pH, bicarbonate, and BE: No statistical difference
  temperature or respiratory rate: No statistical difference
[4]; early-stage study, DOL 6, vs vehicle, not observed on any other days
  systolic blood pressure: higher systolic blood pressure
[4]; in vivo
  volume of tolerable enteral feeding and residual in the stomach: No statistical difference
[5]
  Cmax: 5.7 µM
